{"source": "patent US20170348337A1", "about": "“MULTIFUNCTIONAL MEMBRANE-ACTIVE AMINOGLYCOSIDE-PEPTIDE CONJUGATES” (priority 2014, published 2017)", "key": {"[1]": {"system": "P. acnes clinical isolates", "test": "P. acnes CFU assay, clinical isolates", "format": "cell-based, Propionibacterium acnes"}, "[2]": {"system": "IL-6, IL-8, TNF-α and IL-12p40 in human monocytes", "test": "cytokine ELISA in P. acnes-activated monocytes", "format": "cell-based", "settings": "24 hrs co-treatment", "description": "Peripheral blood mononuclear cells (PBMCs) were isolated from whole blood of normal healthy donors as approved by the Institutional Review Board at UCLA using Ficoll-Paque gradients (GE Healthcare, Piscataway, N.J.) and plated onto six-well tissue culture plates (20×10^6-30×10^6 per well) for 2 hours in RPMI 1640 medium (Invitrogen Life Technologies, Carlsbad, Calif.) supplemented with 1% fetal calf serum (Omega Scientific, Tarzana, Calif.). Nonadherent cells were removed by rigorously washing three times with RPMI. Adherent monocytes were stimulated (co-treated) with media or P. acnes in the presence of tobramycin or Pentobra in 10% fetal calf serum. P. acnes was used at an MOI of 0.5 and cells were cultured for 24 hours at 37° C.\nIL-6, IL-8, Tumor necrosis factor alpha (TNF-α) and IL-12p40 levels in culture supernatants were measured by ELISA following the manufacturer's recommendations (Invitrogen). Samples were assayed in triplicates. Results are expressed as mean±SD of at least three independent experiments, with monocytes obtained from three independent donors.\nMonocytes were cultured and evaluated for cytokine and chemokine expression by ELISA and real time PCR after 24 hrs."}, "S. aureus": {"system": "S. aureus", "test": "antimicrobial activity (MIC) of P-L-A conjugates", "format": "cell-based"}}, "data": [{"smiles": "NC[C@H]1O[C@H](O[C@H]2[C@H](O)[C@@H](O[C@H]3O[C@H](CO)[C@@H](O)[C@H](N)[C@H]3O)[C@H](N)C[C@@H]2N)[C@H](N)C[C@@H]1O", "note": "[tobramycin]", "values": [{"measurement": "antimicrobial activity", "setting": "[1]; isolates HL063PA2, HL110PA1, HL110PA4", "result": "did not exhibit significant antimicrobial activity"}, {"measurement": "bactericidal activity", "setting": "[1]; strain HL005PA1", "result": "strongly bactericidal"}, {"measurement": "activity compared with Pentobra", "setting": "[1]; strains HL053PA2 and HL043PA1", "result": "significantly less active"}, {"measurement": "change in IL-6, IL-8, TNF-α and IL-12p40 cytokine production", "setting": "[2]", "result": "no significant change"}, {"measurement": "MIC (μM) S. aureus (mid-log)", "setting": "S. aureus", "result": 3.12, "unit": "μM"}]}]}
